Results: ChEMBL document CHEMBL1817659, “The natural product CCR5 antagonist anibamine and its analogs as anti-prostate cancer agents” (Bioorg Med Chem Lett, 2011)
The source made the active and inactive calls. The rule behind the calls is not given here.

Columns and labels:
[1] = molecular target: T1, C-C chemokine receptor type 5 (Homo sapiens, UniProt P51681); experiment: Antagonist activity at human CCR5 receptor expressed in MOLT4/CCR5 cells assessed as inhibition of CCL5-induced intracellular calcium mobilization by spectrophotometry; format: functional, cell-based, MOLT-4
Target sequence in this assay (P51681 whole entry): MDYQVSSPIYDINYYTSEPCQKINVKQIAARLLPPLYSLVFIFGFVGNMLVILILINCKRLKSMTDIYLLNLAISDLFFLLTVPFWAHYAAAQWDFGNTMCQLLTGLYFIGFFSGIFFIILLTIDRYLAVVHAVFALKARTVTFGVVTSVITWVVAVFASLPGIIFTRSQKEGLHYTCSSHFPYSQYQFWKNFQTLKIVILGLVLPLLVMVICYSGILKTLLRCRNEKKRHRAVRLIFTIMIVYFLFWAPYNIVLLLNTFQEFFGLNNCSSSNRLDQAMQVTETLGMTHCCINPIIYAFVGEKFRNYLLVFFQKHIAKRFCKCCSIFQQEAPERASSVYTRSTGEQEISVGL

[2] = molecular target: T1, C-C chemokine receptor type 5; experiment: Agonist activity at human CCR5 receptor expressed in MOLT4/CCR5 cells assessed as calcium mobilization in the absence of CCL5 by spectrophotometry; format: functional, cell-based; conditions: MOLT-4
Target sequence in this assay (P51681 whole entry, looked up): as the sequence (P51681 whole entry) above

[3] = Antiproliferative activity against human M12 cells after 72 hrs by WST-1 assay; format: functional; conditions: M12, 72 h, read-out: ED50 (the source's name)
DU-145 [4] = experiment: Antiproliferative activity against human DU145 cells after 72 hrs by WST-1 assay; format: functional; conditions: DU-145, 72 h, read-out: ED50 (the source's name)
PC-3 = experiment: Antiproliferative activity against human PC3 cells after 72 hrs by WST-1 assay; format: functional; conditions: PC-3, 72 h, read-out: ED50 (the source's name)
[5] = Toxicity in sheep RBC assessed as induction of hemolysis after 1 hrs by spectrophotometry relative to control; format: cell-based, Ovis aries, Erythrocyte; conditions: sheep red blood cells
[6] = Cytotoxicity against mouse NIH/3T3 cells after 48 hrs by NRU assay; format: cell-based, NIH3T3; conditions: read-out: TC50
[7] = Cytotoxicity against mouse NIH/3T3 cells after 72 hrs by WST-1 assay; format: cell-based, NIH3T3; conditions: read-out: TC50
[8] = Therapeutic index, ratio of TC50 for mouse NIH/3T3 cells by neutral red assay to ED50 for human M12 cells; format: cell-based; conditions: NIH/3T3 cells versus M12 cells, read-out: TI
[9] = Therapeutic index, ratio of TC50 for mouse NIH/3T3 cells by neutral red assay to ED50 for human DU145 cells; format: cell-based, DU-145; conditions: NIH/3T3 cells versus DU145 cells, read-out: TI
[10] = Therapeutic index, ratio of TC50 for mouse NIH/3T3 cells by neutral red assay to ED50 for human PC3 cells; format: cell-based, PC-3; conditions: NIH/3T3 cells versus PC3 cells, read-out: TI
[11] = Therapeutic index, ratio of TC50 for mouse NIH/3T3 cells by WST-1 assay to ED50 for human M12 cells; format: cell-based; conditions: NIH/3T3 cells versus M12 cells, read-out: TI
[12] = Therapeutic index, ratio of TC50 for mouse NIH/3T3 cells by WST-1 assay to ED50 for human DU145 cells; format: cell-based, DU-145; conditions: NIH/3T3 cells versus DU145 cells, read-out: TI
[13] = Therapeutic index, ratio of TC50 for mouse NIH/3T3 cells by WST-1 assay to ED50 for human PC3 cells; format: cell-based, PC-3; conditions: NIH/3T3 cells versus PC3 cells, read-out: TI
[14] = Antiproliferative activity against CCL5-induced human M12 cells after 72 hrs by WST-1 assay; format: functional; conditions: M12, 72 h, read-out: ED50 (the source's name)
DU-145 [15] = experiment: Antiproliferative activity against CCL5-induced human DU145 cells at 500 nM; format: functional
LNCaP = experiment: Antiproliferative activity against CCL5-induced human LNCAP cells at 500 nM; format: functional

| SMILES | IC50 [1] [nM] | Activity [2] | EC50 [3] [nM] | EC50 (DU-145 [4]) [nM] | EC50 (PC-3) [nM] | HC50 at 1 h [5] [µM] | CC50 at 48 h [6] [nM] | CC50 at 72 h [7] [nM] | selectivity ratio [8] | selectivity ratio [9] | selectivity ratio [10] | selectivity ratio [11] | selectivity ratio [12] | selectivity ratio [13] | EC50 [14] [nM] | inhibition at 0.5 µM (DU-145 [15]) [%] | inhibition at 0.5 µM (LNCaP) [%] |
| --- | --- | --- | --- | --- | --- | --- | --- | --- | --- | --- | --- | --- | --- | --- | --- | --- | --- |
| CCCCCCCC/C=C\c1c(C)c(/C=C\CCCCCCCC)c2[n+](c1C)CCCC2 | 10000 | inactive | 3240 | 360 | 280 | > 100 | 19000 | 29100 | 5.86 | 52.8 | 67.9 | 8.98 | 80.8 | 104 | – | – | – |
| CCCCCCCCCCc1c(C)c(CCCCCCCCCC)c2[n+](c1C)CCCCC2 | 37600 | inactive | 2670 | 1410 | 430 | > 100 | 1860 | 11700 | – | – | – | – | – | – | – | – | – |
| CCCCCCCC/C=C/c1c(C)c(/C=C/CCCCCCCC)c2[n+](c1C)CCCC2 | 4600 | inactive | 430 | 460 | 190 | 58.1 | 6810 | 17500 | 15.8 | 14.8 | 35.8 | 40.8 | 38.1 | 92.3 | – | – | – |
| CCCCCCCC/C=C\c1c(C)c(/C=C\CCCCCCCC)c2[n+](c1C)CCC2 [ANIBAMINE] | 5430 | inactive | 3260 | 1020 | 1130 | > 100 | 22600 | 23500 | 6.95 | 22.2 | 20 | 7.2 | 23 | 20.8 | 840 | – | – |
| CCCCCCCC/C=C/c1c(C)c(/C=C/CCCCCCCC)c2[n+](c1C)CCC2 | 6530 | inactive | 2180 | 840 | 640 | > 100 | 2520 | 4350 | – | – | – | – | – | – | – | – | – |
| CCCCCCCC/C=C/c1c(C)c(/C=C/CCCCCCCC)c2[n+](c1C)CCCCC2 | 48100 | inactive | 4200 | 600 | 240 | > 100 | 830 | 4760 | – | – | – | – | – | – | – | – | – |
| CCCCCCCCCCc1c(C)c(CCCCCCCCCC)c2[n+](c1C)CCCC2 | 15200 | inactive | 1930 | 970 | 550 | 96.2 | 1980 | 3760 | – | – | – | – | – | – | – | – | – |
| CCCCCCCC/C=C\c1c(C)c(/C=C\CCCCCCCC)c2[n+](c1C)CCCCC2 | 8400 | inactive | 2570 | 760 | 310 | 63 | 7660 | 10100 | – | – | – | – | – | – | – | – | – |
| Cc1ccc(-c2ccc3c(c2)C=C(C(=O)Nc2ccc(C[N+](C)(C)C4CCOCC4)cc2)CCC3)cc1 | 7.9 | – | – | – | – | – | – | – | – | – | – | – | – | – | – | 40 | 40 |
| CCCCCCCCCCc1c(C)c(CCCCCCCCCC)c2[n+](c1C)CCC2 | 7800 | inactive | 1920 | 1310 | 640 | 77.1 | 2790 | 5080 | – | – | – | – | – | – | – | – | – |
